Test results from patent US7217710B2, “Substituted pyrazolopyrimidines” (SmithKline Beecham Corporation, priority 2001, dated 2007).

The compounds below were run against T1, GST-TIE2 (intracellular domains of human TIE2) (Homo sapiens, UniProt Q02763) (assay: TIE-2 Enzyme Assay (TIE2-E2), LANCE method). Settings: not given.
T1 construct: made in house
T1 sequence (Q02763 762-1104): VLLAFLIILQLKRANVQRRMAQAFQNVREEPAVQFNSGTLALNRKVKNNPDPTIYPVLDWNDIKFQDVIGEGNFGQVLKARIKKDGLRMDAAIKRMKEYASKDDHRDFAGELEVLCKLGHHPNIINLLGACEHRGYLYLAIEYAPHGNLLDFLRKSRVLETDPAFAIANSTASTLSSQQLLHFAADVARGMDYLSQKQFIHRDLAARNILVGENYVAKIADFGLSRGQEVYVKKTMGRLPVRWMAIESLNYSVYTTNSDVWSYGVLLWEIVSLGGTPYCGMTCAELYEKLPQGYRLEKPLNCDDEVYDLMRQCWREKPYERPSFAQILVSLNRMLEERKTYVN
Format: biochemical
Description: TIE-2 Enzyme Assay (TIE2-E2
The TIE-2 enzyme assay uses the LANCE method (Wallac) and GST-TIE2, baculovirus-expressed recombinant constructs of the intracellular domains of human TIE2 (amino acids 762–1104, GenBank Accession # L06139) tagged by GST). The method measures the ability of the purified enzymes to catalyse the transfer of the γ-phosphate from ATP onto tyrosine residues in a biotinylated synthetic peptide, D1–15 (biotin-C6-LEARLVAYEGWVAGKKKamide). This peptide phosphorylation is detected using the following procedure: for enzyme preactivation, GST-TIE2 is incubated for 2 hours at room temperature with 80 μM ATP, 10 mM MgCl2, 0.1 mg/ml BSA, 0.01% Tween 20 and 1 mM DTT in 100 mM HEPES buffer (pH7.4). 5 nM preactivated GST-TIE2 is incubated for 2 hours at room temperature in 96 well plates with 1 uM D1–15 peptide, 80 uM ATP, 10 mM MgCl2, 0.1 mg/ml BSA, 0.01% Tween 20 and titrated test compound (diluted from a 10 mM stock in DMSO, final DMSO concentration is 2.4%) in 100 mM HEPES (pH7.4). The reaction is stopped by the addition of EDTA (final concentration 45 mM). Streptavidin linked-APC (allophycocyanin, PerkinElmer) and europium-labeled anti-phosphotyrosine antibody (PerkinElmer) are then added at the final concentration of 8 nM and 1 nM, respectively. The APC signal is measured using an Wallac Multilabel 1420 counter. (Wallac Berthold Japan). The percent inhibition of activity is calculated relative to blank control wells. The concentration of test compound that inhibits 50% of activity (IC50) is interpolated using nonlinear regression (Levernberg-Marquardt) and the equation, y=Vmax (1−x/(K+x))+Y2, where “K” is equal to the IC50. The IC50 values are converted to pIC50 values, i.e., −log IC50 in Molar concentration.
With “2,3-Dichloro-N-{4-[1-methyl-6-(3-diethylamino -propylamino)-1H-pyrazolo[3,4-d]pyrimidin-3-yl]-phenyl}-benzenesulfonamide [Example 107]” the “TIE2 PIC50 TIE2-E2 assay” value was “−− (−− = PIC50 less than 5.00)”.
With `Cc1cc(-c2nn(C)c3nc(NCCN4CCOCC4)ncc23)ccc1NC(=O)Nc1cc(C(F)(F)F)ccc1F` [Example 43, 1-(2-Fluoro-5-trifluoromethyl-phenyl)-3-{methyl-[methyl-(2-morpholin-4-yl-ethylamino)-1H-pyrazolo[3,4-d]pyrimidin-3-yl]-phenyl}-urea] the “TIE2 PIC50 TIE2-E2 assay” value was “+++ (+++ = PIC50 = 7.00 to less than 7.40)”.
In the case of `Cc1cc(-c2nn(C)c3nc(NCCN4CCOCC4)ncc23)ccc1NC(=O)Nc1ccc(Cl)c(C(F)(F)F)c1` [Example 44, 1-(Chloro-trifluoromethyl-phenyl)-3-{methyl-[methyl-(2-morpholin-4-yl-ethylamino)-1H-pyrazolo[3,4-d]pyrimidin-3-yl]-phenyl}-urea], the “TIE2 PIC50 TIE2-E2 assay” value is reported as “++ (++ = PIC50 = 6.00 to less than 7.00)”.
For `Cc1cc(-c2nn(C)c3nc(NCCN4CCOCC4)ncc23)ccc1NC(=O)Nc1cccc(C(F)(F)F)c1` [Example 48, 1-{2-Methyl-4-[methyl-(2-morpholin-4-yl-ethylamino)-1H -pyrazolo[3,4-d]pyrimidin-3-yl]-phenyl}-3-(3-trifluoromethyl-phenyl)-urea], the “TIE2 PIC50 TIE2-E2 assay” value was “++ (++ = PIC50 = 6.00 to less than 7.00)”.
With `Cn1nc(-c2ccc(NC(=O)Nc3cc(C(F)(F)F)ccc3F)cc2)c2cnc(Nc3cccc(Cl)c3)nc21` [Example 63] the “TIE2 PIC50 TIE2-E2 assay” value was “++ (++ = PIC50 = 6.00 to less than 7.00)”.
In the case of `CN1CCC(N(C)c2ncnc3[nH]nc(-c4ccc(NC(=O)Nc5cc(C(F)(F)F)ccc5F)cc4)c23)CC1` [Example 65, 1-(2-fluoro-5-trifluoromethyl-phenyl)-3-(4-[methyl-(1-methyl-piperidin-4-ylamino]-1H-pyrazolo[3,4-d]pyrimidin-3-yl]-phenyl}-urea], the “TIE2 PIC50 TIE2-E2 assay” value is reported as “+ (+ = PIC50 = 5.00 to less than 6.00)”.

Same assay, conditions: read-out: TIE2 PIC50 TIE2-E2 assay
`Cn1nc(-c2ccc(NC(=O)Nc3cc(C(F)(F)F)ccc3F)cc2)c2cnc(NCCOC(=O)Nc3cc(C(F)(F)F)ccc3F)nc21` [Example 30, (Fluoro-trifluoromethyl-phenyl)-carbamic acid 2-(3-{4-[3-(fluoro-trifluoromethyl-phenyl)-ureido]-phenyl}-1-methyl-1H-pyrazolo[3,4-d]pyrimidin-6-ylamino)-ethyl ester] showed an IC50 of 1 to 10 µM.
With `Cn1nc(-c2ccc(NC(=S)Nc3cccc(C(F)(F)F)c3)cc2)c2cnc(NCCN3CCOCC3)nc21` [Example 36, 1-{4-[1-Methyl-6-(2-morpholin-4-yl-ethylamino)-1H-pyrazolo[3,4-d]pyrimidin-3-yl]-phenyl}-3-(3-trifluoromethyl-phenyl)-thiourea] the IC50 was 0.1 to 1 µM.
`CCc1cccc(NC(=O)Nc2ccc(-c3nn(C)c4nc(NCCN5CCOCC5)ncc34)cc2)c1` [Example 38, 1-(3-Ethyl-phenyl)-3-{4-[1-methyl-6-(2-morpholin-4-yl-ethylamino) -1H-pyrazolo[3,4-d]pyrimidin-3-yl]-phenyl}-urea] showed an IC50 of 0.0398 to 0.1 µM.
Compound `CC(=O)c1cccc(NC(=O)Nc2ccc(-c3nn(C)c4nc(NCCN5CCOCC5)ncc34)cc2)c1` [Example 40, 1-(3-Acetyl-phenyl)-3-{4-[1-methyl-6-(2-morpholin-4-yl-ethylamino)-1H-pyrazolo[3,4-d]pyrimidin-3-yl]-phenyl}-urea] has an IC50 of 1 to 10 µM.
Work on `CCc1cccc(NC(=O)Nc2ccc(-c3nn(C)c4nc(NCCN5CCOCC5)ncc34)cc2C)c1` [Example 45, 1-(3-Ethyl-phenyl)-3-{2-methyl-4-[1-methyl-6-(2-morpholin-4-yl-ethylamino)-1H-pyrazolo[3,4-d]pyrimidin-3-yl]-phenyl}-urea] yielded an IC50 of 0.1 to 1 µM.
Work on `Cc1cc(-c2nn(C)c3nc(NCCN4CCOCC4)ncc23)ccc1NC(=O)Nc1cc(C(F)(F)F)cc(C(F)(F)F)c1` [Example 47, 1-(Bis-trifluoromethyl-phenyl)-3-{methyl-[methyl-(2-morpholin-4-yl-methylamino)-1H-pyrazolo[3,4-d]pyrimidin-3-yl]-phenyl}-urea] yielded an IC50 of 0.1 to 1 µM.
Compound `CC(=O)c1cccc(NC(=O)Nc2ccc(-c3nn(C)c4nc(NCCN5CCOCC5)ncc34)cc2F)c1` [Example 54, 1-(3-Acetyl-phenyl)-3-{2-fluoro-4-[1-methyl-6-(2-morpholin-4-yl-ethylamino)-1H-pyrazolo[3,4-d]pyrimidin-3-yl]-phenyl}-urea] has an IC50 of 0.1 to 1 µM.
In the case of `Cc1cc(-c2nn(C)c3nc(NCCN4CCOCC4)ncc23)ccc1NC(=S)Nc1cccc(C(F)(F)F)c1` [Example 58, 1-{2-Methyl-4-[1-methyl-6-(2-morpholin-4-yl-ethylamino)-1H -pyrazolo[3,4-d]-pyrimidin-3-yl]-phenyl}-3-(3-trifluoromethyl-phenyl)-thiourea], the IC50 is reported as 1 to 10 µM.
Compound `Cn1nc(-c2ccc(NC(=O)Nc3cc(C(F)(F)F)ccc3F)cc2)c2cnc(NCc3ccccc3)nc21` [Example 62, 1-(2-fluoro-5-trifluoromethyl-phenyl)-3-{4-[1-methyl-6-(benzylamino)-1H-pyrazolo[3,4-d]pyrimidin-3-yl]-phenyl}-urea] has an IC50 of 1 to 10 µM.
`CN1CCC(Nc2ncc3c(-c4ccc(NS(=O)(=O)c5cccc(Cl)c5Cl)cc4)nn(C)c3n2)CC1` [Example 68] gave an IC50 of 0.1 to 1 µM.
In the case of `Cn1nc(-c2ccc(NC(=O)Nc3cc(C(F)(F)F)ccc3F)cc2)c2cnc(NCCc3ccccc3)nc21` [Example 81, 1-(2-Fluoro-5-trifluoromethyl-phenyl)-3-{4-[(1-methyl-6-phenethylamino)-1H-pyrazolo[3,4-d]pyrimidin-3-yl]-phenyl} urea], the IC50 is reported as 1 to 10 µM.
`Cn1nc(-c2ccc(NC(=O)Nc3cc(C(F)(F)F)ccc3F)cc2)c2cnc(NCCCN3CCCC3)nc21` [Example 86] gave an IC50 of no more than 0.0398 µM.
Compound `CN(C)CCCNc1ncc2c(-c3ccc(NC(=O)Nc4cc(C(F)(F)F)ccc4F)cc3)nn(C)c2n1` [Example 87, 1-(2-Fluoro-5-trifluoromethyl-phenyl)-3-{4-[1-methyl-6-(3-dimethylamino-propylamino)-1H-pyrazolo[3,4-d]pyrimidin-3-yl]-phenyl} urea] has an IC50 of no more than 0.0398 µM.
Work on `Cn1nc(-c2ccc(NC(=O)Nc3cc(C(F)(F)F)ccc3F)cc2)c2cnc(NCCCN)nc21` [Example 94, 1-(2-Fluoro-5-trifluoromethyl-phenyl)-3-{4-[1-methyl-6-(3-amino-propylamino)-1H-pyrazolo[3,4-d]pyrimidin-3-yl]-phenyl} urea] yielded an IC50 of 0.0398 to 0.1 µM.
Compound `Cn1nc(-c2ccc(NC(=O)Nc3cc(C(F)(F)F)ccc3F)cc2)c2cnc(NCCCCN)nc21` [Example 95, 1-(2-Fluoro-5-trifluoromethyl-phenyl)-3-{4-[1-methyl-6-(4-amino-butylamino)-1H-pyrazolo[3,4-d]pyrimidin-3-yl]-phenyl} urea] has an IC50 of no more than 0.0398 µM.
In the case of `Cn1nc(-c2ccc(NC(=O)Nc3cc(C(F)(F)F)ccc3F)cc2)c2cnc(NCCCCNC(=N)N)nc21` [Example 99, 1-(2-Fluoro-5-trifluoromethyl-phenyl)-3-{4-[1-methyl-6-(4-guanidino-butylamino)-1H-pyrazolo[3,4-d]pyrimidin-3-yl]-phenyl} urea], the IC50 is reported as 0.0398 to 0.1 µM.
Compound `Cn1nc(-c2ccc(NS(=O)(=O)c3cccc(Cl)c3Cl)cc2)c2cnc(NCCCN3CCOCC3)nc21` [Example 103, 2,3-Dichloro-N-{4-[1-methyl-6-(3-morpholin-4-yl-propylamino)-1H-pyrazolo[3,4-d]pyrimidin-3-yl)-phenyl}-benzenesulfonamide] has an IC50 greater than 10 µM.
`CC1CCCCN1CCCNc1ncc2c(-c3ccc(NS(=O)(=O)c4cccc(Cl)c4Cl)cc3)nn(C)c2n1` (stereo not drawn) [Example 104, 2,3-Dichloro-N-(4-{1-methyl-6-[3-(2-methyl-piperidin-1-yl)-propylamino]-1H-pyrazolo[3,4-d]pyrimidin-3-yl)-phenyl}-benzenesulfonamide] showed an IC50 greater than 10 µM.
`Cn1nc(-c2ccc(NS(=O)(=O)c3cccc(Cl)c3Cl)cc2)c2cnc(NCCCN3CCCC3)nc21` [Example 105, 2,3-Dichloro-N-{4-[1-methyl-6-(3-pyrrolidin-1-yl-propylamino)-1H-pyrazolo[3,4-d]pyrimidin-3-yl]-phenyl}-benzenesulfonamide] gave an IC50 greater than 10 µM.
`CN(C)CCCNc1ncc2c(-c3ccc(NS(=O)(=O)c4cccc(Cl)c4Cl)cc3)nn(C)c2n1` [Example 106, 2,3-Dichloro-N-{4-[1-methyl-6-(3-dimethylamino-propylamino)-1H-pyrazolo[3,4-d]pyrimidin-3-yl]-phenyl}-benzenesulfonamide] showed an IC50 greater than 10 µM.
Compound `CN1CCCC1CCNc1ncc2c(-c3ccc(NS(=O)(=O)c4cccc(Cl)c4Cl)cc3)nn(C)c2n1` (stereo not drawn) [Example 108, 2,3-Dichloro-N-(4-{1-methyl-6-[2-(1-methyl-pyrrolidin-2-yl)-ethylamino]-1H-pyrazolo[3,4-d]pyrimidin-3-yl]-phenyl}-benzenesulfonamide] has an IC50 greater than 10 µM.
